Laboratory results published in ChEMBL document CHEMBL1201862, “PubChem BioAssay data set” (2004).
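Growth conditions: 96-well plates. Treatment: test compound, 48 hours, 5 concentrations. Analysis: linear interpolation between bracketing concentrations; unreached endpoints set to highest concentration. Here, GI50 denotes the concentration required for 50% inhibition of growth.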 The source made the active and inactive calls. Rule as the data show it: active = GI50 up to about 1.1 µM and inactive = higher.

Assays:
Assay in all cases: inhibition of tumour cell growth, NCI panel, 48 h
[1] = test system: KM12
[2] = test system: U-251
[3] = test system: DU-145
[4] = test system: SK-MEL-5
[5] = test system: NCI-H226
[6] = test system: SNB-75
[7] = test system: OVCAR-8
[8] = test system: RXF 393
[9] = test system: MDA-MB-231
[10] = test system: HOP-62
[11] = test system: Malme-3M
[12] = test system: HCT-116
[13] = test system: NCI-H522
[14] = test system: ACHN
[15] = test system: SF-295
[16] = test system: MOLT-4
[17] = test system: CCRF-CEM
[18] = test system: MDA-MB-435
[19] = test system: A549
[20] = test system: A498

Row | Structure (SMILES) | GI50 [1] | GI50 [2] | GI50 [3] | GI50 [4] | GI50 [5] | GI50 [6] | GI50 [7] | GI50 [8] | GI50 [9] | GI50 [10] | GI50 [11] | GI50 [12] | GI50 [13] | GI50 [14] | GI50 [15] | GI50 [16] | GI50 [17] | GI50 [18] | GI50 [19] | GI50 [20]
1 | Cc1cccc(Nc2nn3c(=O)c4c5c(sc4nc3s2)CCCC5)c1 | 16.1 µM (inactive) | 46.2 µM (inactive) | > 100 µM (inactive) | 2.4 µM (inactive) | > 100 µM (inactive) | 23.2 µM (inactive) | 12.4 µM (inactive) | 20.4 µM (inactive) | 8.09 µM (inactive) | 28.4 µM (inactive) | 3.15 µM (inactive) | 22.9 µM (inactive) | 4.35 µM (inactive) | 7.71 µM (inactive) | 3.08 µM (inactive) | 48.4 µM (inactive) | 56.5 µM (inactive) | 7.41 µM (inactive) | 14.8 µM (inactive) | 
2 | CC(=O)OCCOCn1c2c(c(=O)[nH]c1=O)CCC2 | > 100 µM (inactive) | > 100 µM (inactive) | > 100 µM (inactive) | > 100 µM (inactive) | > 100 µM (inactive) | > 100 µM (inactive) | > 100 µM (inactive) | > 100 µM (inactive) | > 100 µM (inactive) | > 100 µM (inactive) | > 100 µM (inactive) | > 100 µM (inactive) | > 100 µM (inactive) | > 100 µM (inactive) | > 100 µM (inactive) | > 100 µM (inactive) | > 100 µM (inactive) | > 100 µM (inactive) | > 100 µM (inactive) | 
3 | O=C(CN1CCCCC1)Nc1ccc2c(c1)C1Oc3ccccc3CC1CO2 (centres undefined) | 20.5 µM (inactive) | 18 µM (inactive) | 35.2 µM (inactive) | 13.8 µM (inactive) | 21 µM (inactive) |  | 39 µM (inactive) |  | 17.3 µM (inactive) | 16.9 µM (inactive) | 16.7 µM (inactive) | 16.2 µM (inactive) | 17.9 µM (inactive) |  | 19.5 µM (inactive) | 31.5 µM (inactive) | 34.3 µM (inactive) | 18.7 µM (inactive) | 32.5 µM (inactive) | 30.3 µM (inactive)
4 | COC(=O)c1ccc(Cc2cc(Cc3ccc(C(=O)OC)cc3)cc(Cc3ccc(C(=O)OC)cc3)c2)cc1 | > 25 µM (inactive) | > 25 µM (inactive) | > 25 µM (inactive) |  | > 25 µM (inactive) | > 25 µM (inactive) | > 25 µM (inactive) |  | > 25 µM (inactive) | > 25 µM (inactive) | > 25 µM (inactive) | > 25 µM (inactive) | > 25 µM (inactive) | > 25 µM (inactive) | > 25 µM (inactive) | > 25 µM (inactive) |  | > 25 µM (inactive) | > 25 µM (inactive) | > 25 µM (inactive)
5 | COc1ccc2c3c1OC1C4(CCC5C(C2)N(CC2CC2)CCC351)OCCO4 (centres undefined) | > 100 µM (inactive) | > 100 µM (inactive) | > 100 µM (inactive) | > 100 µM (inactive) | > 100 µM (inactive) | > 100 µM (inactive) | > 100 µM (inactive) | > 100 µM (inactive) | > 100 µM (inactive) | > 100 µM (inactive) | > 100 µM (inactive) | > 100 µM (inactive) | > 100 µM (inactive) | > 100 µM (inactive) | > 100 µM (inactive) | > 100 µM (inactive) | > 100 µM (inactive) | > 100 µM (inactive) | > 100 µM (inactive) | 
6 | CC(C(=O)N1c2ccccc2Sc2ccccc21)N1c2ccccc2Sc2ccccc21 (centres undefined) | 72.1 µM (inactive) | 60 µM (inactive) | > 100 µM (inactive) | 57.5 µM (inactive) | 40.1 µM (inactive) | 96.4 µM (inactive) | 97.1 µM (inactive) | > 100 µM (inactive) | > 100 µM (inactive) | > 100 µM (inactive) | > 100 µM (inactive) | > 100 µM (inactive) |  | > 100 µM (inactive) | 98.4 µM (inactive) | 42.9 µM (inactive) | 57.1 µM (inactive) | > 100 µM (inactive) | > 100 µM (inactive) | 31.8 µM (inactive)
7 | O=C(N/N=C(COc1ccccc1Cl)\N=C\c1ccncc1)c1ccncc1 | > 100 µM (inactive) | > 100 µM (inactive) | > 100 µM (inactive) |  |  | 15.9 µM (inactive) | > 100 µM (inactive) | > 100 µM (inactive) | > 100 µM (inactive) | > 100 µM (inactive) | > 100 µM (inactive) | > 100 µM (inactive) | > 100 µM (inactive) | > 100 µM (inactive) | > 100 µM (inactive) | 61.1 µM (inactive) | > 100 µM (inactive) | > 100 µM (inactive) | > 100 µM (inactive) | > 100 µM (inactive)
8 | C=CCc1cccc2cc(C(N)=O)c(=N)oc12 | > 100 µM (inactive) | > 100 µM (inactive) | > 100 µM (inactive) | > 100 µM (inactive) | 43.9 µM (inactive) | 54.7 µM (inactive) | > 100 µM (inactive) | > 100 µM (inactive) | > 100 µM (inactive) | > 100 µM (inactive) |  | 78.2 µM (inactive) |  | 61.9 µM (inactive) |  | > 100 µM (inactive) | 52.8 µM (inactive) | 95.7 µM (inactive) | > 100 µM (inactive) | 77.3 µM (inactive)
9 | CCCCCC(C)(C)CCC(=O)OC1OC(COC2OC(COC3OC(CO)C(O)C(O)C3O)C(O)C(O)C2O)C(O)C(O)C1O (centres undefined) | > 100 µM (inactive) | > 100 µM (inactive) | > 100 µM (inactive) | > 100 µM (inactive) | > 100 µM (inactive) |  | > 100 µM (inactive) | 6.17 µM (inactive) | > 100 µM (inactive) | > 100 µM (inactive) | > 100 µM (inactive) | > 100 µM (inactive) | > 100 µM (inactive) | > 100 µM (inactive) | > 100 µM (inactive) | > 100 µM (inactive) | > 100 µM (inactive) | > 100 µM (inactive) | > 100 µM (inactive) | > 100 µM (inactive)
10 | N/C(CSCCSC/C(N)=N/O)=N\O | > 100 µM (inactive) | > 100 µM (inactive) | > 100 µM (inactive) | > 100 µM (inactive) | > 100 µM (inactive) | > 100 µM (inactive) |  | > 100 µM (inactive) | > 100 µM (inactive) | > 100 µM (inactive) | > 100 µM (inactive) | > 100 µM (inactive) | > 100 µM (inactive) | > 100 µM (inactive) |  | > 100 µM (inactive) | > 100 µM (inactive) | > 100 µM (inactive) | > 100 µM (inactive) | 
11 | O=CNNC(=O)Nc1ccc(Cl)cc1 | > 100 µM (inactive) | > 100 µM (inactive) | > 100 µM (inactive) | > 100 µM (inactive) | 31.1 µM (inactive) | > 100 µM (inactive) | > 100 µM (inactive) | > 100 µM (inactive) | > 100 µM (inactive) | > 100 µM (inactive) | > 100 µM (inactive) | > 100 µM (inactive) |  | > 100 µM (inactive) | 33.7 µM (inactive) | > 100 µM (inactive) | > 100 µM (inactive) | > 100 µM (inactive) | > 100 µM (inactive) | 29.6 µM (inactive)
12 | c1ccc(C2CC(N3CCOCC3)=Nc3ccccc3N2)cc1 (centres undefined) | > 100 µM (inactive) | > 100 µM (inactive) | > 100 µM (inactive) | > 100 µM (inactive) | > 100 µM (inactive) |  | > 100 µM (inactive) | 78.5 µM (inactive) | > 100 µM (inactive) | > 100 µM (inactive) | 80.9 µM (inactive) | > 100 µM (inactive) | > 100 µM (inactive) | > 100 µM (inactive) | > 100 µM (inactive) | 70.6 µM (inactive) | > 100 µM (inactive) | 54.3 µM (inactive) | > 100 µM (inactive) | > 100 µM (inactive)
13 | Cc1ccc(S(=O)(=O)N/N=C2/CCC(C(C)(C)C)CC2Br)cc1 (centres undefined) | 20.8 µM (inactive) | 8.24 µM (inactive) | 42.6 µM (inactive) | 15.5 µM (inactive) | 17.8 µM (inactive) | 27.4 µM (inactive) | 26.4 µM (inactive) |  | 37.9 µM (inactive) | 32.4 µM (inactive) | 16.3 µM (inactive) | 23.1 µM (inactive) | 18.2 µM (inactive) | 34.1 µM (inactive) | 34.5 µM (inactive) | 20 µM (inactive) | 24.5 µM (inactive) | 18.7 µM (inactive) | 34 µM (inactive) | 48.6 µM (inactive)
14 | C=C(C)C(=O)O[C@H]1C[C@@]23O[C@@H]2CCC(=C[C@H]2OC(=O)C(=C)[C@H]12)COC3O (some centres undefined) | > 100 µM (inactive) | > 100 µM (inactive) | > 100 µM (inactive) | > 100 µM (inactive) | > 100 µM (inactive) | > 100 µM (inactive) | 39.6 µM (inactive) | 25.1 µM (inactive) | > 100 µM (inactive) | > 100 µM (inactive) |  | 18.9 µM (inactive) | 14.4 µM (inactive) | 39.9 µM (inactive) | > 100 µM (inactive) | 28.7 µM (inactive) | 17.2 µM (inactive) | 44.3 µM (inactive) | > 100 µM (inactive) | > 100 µM (inactive)
15 | CC1C2C=CC1C(c1c3ccc(=O)c(O)c-3oc3c(O)c(O)ccc13)C2C(=O)O (centres undefined) | 50.2 µM (inactive) | 36.5 µM (inactive) | > 100 µM (inactive) | 91.6 µM (inactive) | 10.2 µM (inactive) |  | > 100 µM (inactive) | > 100 µM (inactive) | > 100 µM (inactive) | > 100 µM (inactive) |  | 27.8 µM (inactive) |  | 53.5 µM (inactive) | 43.2 µM (inactive) | 21.6 µM (inactive) | 1.01 µM (active) | 19.6 µM (inactive) | 35 µM (inactive) | > 100 µM (inactive)
